According to patent publication US9435786B2, “Method for determining differentiation level of pluripotent stem cells” (HAMAMATSU PHOTONICS K.K., priority 2012, dated 2016):

Assays:
Type in all cases: cell-based
[1] = tested on: 253G1 iPS cell line derived from a human adult fibroblast; assay: Flatness of cell surface in a whole visual field, reflection quantitative phase microscope (Example 1); conditions: 12.5 μM retinoic acid, cultured another 4 days
Description: Onto an antireflectively coated glass bottom dish with 35 mm diameter, a 253G1 iPS cell line derived from a human adult fibroblast was seeded at 10 to 20 colonies/dish and cultured on feeder using a Primate ES Medium (manufactured by ReproCELL Incorporated, a commercial name: RCHEMD001) containing 4 ng/mL human basic FGF in the final concentration. The size of one colony was around 200 μn. As the feeder cells, mouse lung fibroblasts were used. The cells were cultured until the third day after the seeding. The medium was replaced once a day. […]
The shape of the cells was observed using a reflection quantitative phase microscope. […]
The bottom surface and surface shapes of the cell were extracted as follows. By using a reflection quantitative phase microscope, three-dimensional data for the cells in a 60 μm×80 μm visual field were obtained every 0.125 μm in the horizontal direction and every 0.32 μm in the vertical direction, and from the obtained data, tomogram images were created. […] From the obtained bottom surfaces and surface shapes, the height of the surface of the cells was measured. The flatness was calculated as a standard deviation of height of the surface of the cells which was standardized with a mean value of height of the surface of the cells, and a statistical processing was done.

[2] = tested on: 253G1 iPS cell line derived from a human adult fibroblast; assay: Flatness per ROI as standard deviation of height standardized with mean height (Example 2); conditions: ROI unit, 12.5 μM retinoic acid
Description: Onto an antireflectively coated glass bottom dish with 35 mm diameter, a 253G1 iPS cell line derived from a human adult fibroblast was seeded at 10 to 20 colonies/dish and cultured on feeder using a Primate ES Medium (manufactured by ReproCELL Incorporated, a commercial name: RCHEMD001) containing 4 ng/mL human basic FGF in the final concentration. The size of one colony was around 200 μn. As the feeder cells, mouse lung fibroblasts were used. The cells were cultured until the third day after the seeding. The medium was replaced once a day.
A sample of the iPS cells for differentiation, the medium of which was replaced with a Primate ES Medium containing 4 ng/mL human basic FGF and 12.5 μM retinoic acid in the final concentration on the second day after the seeding, was cultured for another 4 days. Retinoic acid is generally used as a reagent for inducing differentiation. In addition, for a control of differentiated cells, MCF7 cells were used which were human breast cancer-derived epithelial cells. The MCF7 cells were seeded at 20% cell density and cultured for 3 days to be approximately confluent using 10% FBS-containing DMEM medium. In each culture system except the MCF7 cell culture system, the medium was replaced once a day.
As to 3 colonies of the undifferentiated iPS cells and 3 colonies of the iPS cells cultured by supplementing retinoic acid, 7 to 15 visual fields around the center of each colony were analyzed. Each visual field was partitioned into six ROIs, and the bottom surfaces and surface shapes of the cells were extracted for each ROI unit to measure the height of the surface of the cells under the same condition as that of Example 1. The size of the ROI was […]×23 μm. The flatness was calculated as a standard deviation of height of the surface of the cells which was standardized with a mean value of height of the surface of the cells, and a statistical processing was done to perform Student's t-test.

[3] = tested on: 253G1 iPS cell line derived from a human adult fibroblast; assay: Variogram analysis, MSHD standardized with mean height, per ROI (Example 3); conditions: Δr 15 μm, ROI unit
Text: The flatness may also be a value of MSHD in a predetermined horizontal distance. When a surface shape Z (x, y) is given and two points, A (x1, y1) and B (x2, y2), which are apart from each other at a Δr in the horizontal direction on the Z, are selected, the MSHD can be represented by formula (I). MSHD(Δr)=<(z(x1,y1)−z(x2,y2))^2> (I)
wherein z (x1, y1) is a height of a surface of the cell at A, z (x2, y2) is a height of a surface of the cell at B, and < > is an ensemble average. In addition, (x1, y1) and (x2, y2) are in any combination that satisfies formula (II). Δr=((x1−x2)^2+(y1−y2)^2)^1/2 (II)
Under the same condition as that of Example 2, three-dimensional data for the undifferentiated iPS cells and the iPS cells cultured by supplementing retinoic acid were obtained every 0.125 μm in the horizontal direction and every 0.32 μm in the vertical direction, and from the obtained data, tomogram images were created. From the created tomogram images, the bottom surfaces and surface shapes of the cells were extracted and a variogram analysis was performed. Specifically, a value of MSHD when the Δr was within a range of 0.25 μm to 15 μm was calculated from formula (I) as described above, and standardized with a mean value of height of the surface of the cells.
Next, a value of MSHD when the Δr was […] was calculated and standardized with a mean value of height of the surface of the cells to calculate the flatness. The result was shown as a logarithmic graph (FIG. 6). In a statistical analysis, the common logarithm of the result was calculated to perform Student's t-test (Table 3).

[4] = tested on: 253G1 iPS cell line derived from a human adult fibroblast; assay: Slope of variogram as flatness, per ROI (Example 4); conditions: Δr 5 μm to 15 μm, ROI unit
Text: The flatness may also be a slope of a variogram in a horizontal distance between the predetermined two points. In this case, as the numerical value is smaller, the cell is flatter and less differentiated, and as the numerical value is larger, the cell is less flat and is more differentiated. The horizontal distance between the predetermined two points is not limited in particular, as long as the distance is between points enough to definitely determine the difference between undifferentiated pluripotent stem cell and differentiated cell. The relationship between a mean square height difference and a slope of a variogram can be represented by formula (III). MSHD(Δr)∝Δr^S (III)
wherein S is a slope of a graph which represents a variogram in a double logarithmic manner. It should be noted that because of the nature of a log-log graph, even when constantly multiplying the abscissa Δr or ordinate MSHD through the standardization, the graph is only translated parallelly and the slope S is constant with respect to the constantly multiplied abscissa and ordinate. In addition, as shown in the above-mentioned document of Glenn, N. et al., it is a known mathematical approach to represent a variogram by log-log graph and evaluate the statistical nature of the surface shape by slope S.
Under the same condition as that of Example 3, a variogram analysis was performed using a value of MSHD which was standardized with a mean value of height of the surface of the cells, and a slope of the variogram when the Δr was within a range of 5 μm to 15 μm was calculated as the flatness, using formula (III) as described above. Then, a statistical analysis was done to perform Student's t-test.

[5] = tested on: 253G1 iPS cell line derived from a human adult fibroblast; assay: Flatness as MSHD per visual field unit (Example 6)
Description: By using images shot using each sample in Example 2 of one colony (15 visual fields) for the undifferentiated iPS cells and 2 colonies (11 and 13 visual fields, respectively) for the iPS cells cultured by supplementing retinoic acid, the height of the surface of the cells for each visual field unit was measured using a reflection quantitative phase microscope under the same condition as that of Example 2. A value of MSHD when the Δr was 5 μm was calculated and standardized with a mean value of height of the surface of the cells, then the common logarithm was taken and the flatness was calculated. A statistical analysis was done to perform Student's t-test.

For `CC1=C(/C=C/C(C)=C/C=C/C(C)=C/C(=O)O)C(C)(C)CCC1` [Retinoic acid, retinoic acid], the “Mean value of height of the surface of the cells” value ([1]; 60 μm×80 μm visual field) was 6.25 μm, the “Flatness (standard deviation of height standardized with mean height)” value ([1]; iPS cells, larger value = less flat) was 18.9% and the “Flatness (standard deviation of height standardized with mean height)” value ([2]; colony RA-1) was 0.130. The “Flatness (standard deviation of height standardized with mean height)” value ([2]; colony RA-2) was 0.107, the “Flatness (standard deviation of height standardized with mean height)” value ([2]; colony RA-3) was 0.123 and the “Flatness (common logarithm of MSHD standardized with mean height)” value ([3]; colony RA-1) was −1.392. For the same compound, the “Flatness (common logarithm of MSHD standardized with mean height)” value ([3]; colony RA-2) was −1.517, the “Flatness (common logarithm of MSHD standardized with mean height)” value ([3]; colony RA-3) was −1.425 and the “Flatness (slope of variogram)” value ([4]; colony RA-1) was 0.848. For the same compound, the “Flatness (slope of variogram)” value ([4]; colony RA-2) was 0.744, the “Flatness (slope of variogram)” value ([4]; colony RA-3) was 0.880 and the “Flatness (common logarithm of MSHD standardized with mean height)” value ([5]; colony RA-1, Δr 5 μm) was −1.657. For the same compound, the “Flatness (common logarithm of MSHD standardized with mean height)” value ([5]; colony RA-2, Δr 5 μm) was −1.796.
